Data as given in patent publication US7579348B2, “Derivatives of 8-substituted xanthines” (PGxHealth, LLC, priority 2005, dated 2009).

The molecules below were run against T1, rat A2B receptors (rA2B) (Rattus norvegicus, UniProt P29276) (assay: Radioligand binding, displacement of specific [125I]ABOPX binding). Conditions: displacement of specific [125I]ABOPX binding at rat A2B receptors expressed in HEK-293 cells; read-out: RatA2B Ki.
T1 construct: expressed in transfected cells; membranes)
T1 sequence (P29276 1-332): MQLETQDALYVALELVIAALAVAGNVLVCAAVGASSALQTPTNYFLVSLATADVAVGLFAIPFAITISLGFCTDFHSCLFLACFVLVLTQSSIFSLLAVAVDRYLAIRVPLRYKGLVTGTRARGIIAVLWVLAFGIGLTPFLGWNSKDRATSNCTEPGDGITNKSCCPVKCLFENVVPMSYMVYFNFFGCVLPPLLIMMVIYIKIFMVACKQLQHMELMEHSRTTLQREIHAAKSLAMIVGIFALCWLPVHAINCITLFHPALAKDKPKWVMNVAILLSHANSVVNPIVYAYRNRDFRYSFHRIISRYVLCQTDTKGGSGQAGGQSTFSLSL
Excerpt: The rat A2B receptor cDNA was subcloned into the expression plasmid pDoubleTrouble using techniques described in Robeva, A. et al., Biochem. Pharmacol., 51, 545-555 (1996). The plasmid was amplified in competent JM109 cells and plasmid DNA isolated using Wizard Megaprep columns (Promega Corporation, Madison, Wis.). A2B adenosine receptors were introduced into HEK-293 cells by means of Lipofectin as described in Felgner, P. L. et al., Proc. Natl. Acad. Sci. USA, 84, 7413-7417 (1987).
Transfected HEK cells were grown under 5% CO2/[…] humidified atmosphere at a temperature of 37° C. Colonies were selected by growth of cells in 0.6 mg/mL G418. Transfected cells were maintained in DMEM supplemented with Hams F 12 nutrient mixture (1/1), 10% newborn calf serum, 2 mM glutamine and containing 50 IU/mL penicillin, […], and 0.2 mg/mL Geneticin (G418, Boehringer Mannheim). Cells were cultured in 10 cm diameter round plates and subcultured when grown confluent (approximately after 72 hours).
At A2B receptors: Confluent monolayers of HEK-A2B cells were washed with PBS followed by ice cold Buffer A (10 mM HEPES, 10 mM EDTA, pH 7.4) with protease inhibitors (10 μg/mL benzamidine, 100 μM phenylmethanesulfonyl fluoride, and 2 μg/mL of each aprotinin, pepstatin and leupeptin). The cells were homogenized in a Polytron (Brinkmann) for 20s, centrifuged at 30,000 ×g, and the pellets washed twice with buffer HE (10 mM HEPES, 1 mM EDTA, pH 7.4 with protease inhibitors). The final pellet was resuspended in buffer HE, supplemented with 10% sucrose and frozen in aliquots at −80° C. For binding assays membranes were thawed and diluted 5-10 fold with HE to a final protein concentration of approximately 1 mg/mL. To determine protein concentrations, membranes, and bovine serum albumin standards were dissolved in 0.2% NaOH/0.01% SDS and protein determined using fluorescamine fluorescence. Stowell, C. P. et al., Anal. Biochem., 85, 572-580 (1978).
Saturation binding assays for rat A2B adenosine receptors were performed with [^3H]ZM214,385 (17 Ci/mmol, Tocris Cookson, Bristol UK) (Ji, X. et al., Drug Design Discov., 16, 216-226 (1999)) or ^125I-ABOPX (2200 Ci/mmol). To prepare 125I-ABOPX, 10 μL of 1 mM ABOPX in methanol/1 M NaOH (20:1) was added to 50 μL of 100 mM phosphate buffer, pH 7.3. One or 2 mCi of Na^125I was added, followed by 10 μL of 1 mg/mL chloramine-T in water. After incubation, 20 minutes at room temperature, 50 μL of 10 mg/mL Na-metabisulfite in water was added to quench the reaction. The reaction mixture was applied to a C18 HPLC column, eluting with a mixture of methanol and 5 mM phosphate, pH 6.0. After 5 min at 35% methanol, the methanol concentration was ramped to 100% over 15 min. Unreacted ABOPX eluted in 11-12 minutes; ^125I-ABOPX eluted at 18-19 min in a yield of 50-60% with respect to the initial ^125I.
In equilibrium binding assays the ratio of ^127I/^125I-ABOPX was 10-20/1. Radioligand binding experiments were performed in triplicate with 20-25 μg membrane protein in a total volume of 0.1 mL HE buffer supplemented with 1 U/mL adenosine deaminase and 5 mM MgCl2. The incubation time was 3 h at 21° C. Nonspecific binding was measured in the presence of 100 μM NECA. Competition experiments were carried out using 0.6 nM ^125I-ABOPX. Membranes were filtered on Whatman GF/C filters using a Brandel cell harvester (Gaithersburg, Md.) and washed 3 times over 15-20 seconds with ice cold buffer (10 mM Tris, 1 mM MgCl2, pH 7.4). Bmax and KD values were calculated by Marquardt's nonlinear least squares interpolation for single a site binding models. Marquardt, D. M., J. Soc. Indust. Appl. Math., 11, 431-441.21 (1963). Ki values for different compounds were derived from IC50 values as described. Linden, J., J. Cycl. Nucl. Res., 8, 163-172 (1982). Data from replicate experiments are tabulated as means ±SEM. […]
`CCCn1c(=O)c2[nH]c(-c3ccc(-n4nc(-c5ccco5)cc4N)nc3)nc2n(CCC)c1=O` [Compound 16, 8-(6-(5-Amino-3-(furan-2-yl)-1H-pyrazol-1-yl)pyridin-3-yl)-1,3-dipropyl-1H-purine-2,6(3H, 7H)-dione] was tested, and the Ki was less than 100 nM.
Molecule `CCn1c(=O)c2[nH]c(-c3ccc4nnc(C)n4c3)nc2n(CC)c1=O` [Compound 4, 1,3-Diethyl-8-(3-methyl-[1,2,4]triazolo[4,3,a]pyridin-6-yl)-1H-purine-2,6(3H,7H)-dione] has a Ki of 100 to 500 nM.
In the case of `CCCn1c(=O)c2[nH]c(-c3ccc4nncn4c3)nc2n(CCC)c1=O` [Compound 14, 1,3-Dipropyl-8-([1,2,4]triazolo[4,3,a]pyridin-6-yl)-1H-purine-2,6(3H, 7H)-dione], the Ki is reported as 100 to 500 nM.
`CCn1c(=O)c2[nH]c(-c3ccc4nnc(C(F)(F)F)n4c3)nc2n(CC)c1=O` [Compound 3, 1,3-Diethyl-8-(3-(trifluoromethyl)-[1,2,4]triazolo[4,3,a]pyridin-6-yl)-1H-purine-2,6(3H,7H)-dione] gave a Ki of 100 to 500 nM.
Work on `CCCn1c(=O)c2[nH]c(-c3ccc(-n4nc(C)cc4C)nc3)nc2n(CCC)c1=O` [Compound 10] yielded a Ki of 100 to 500 nM.
In the case of `CCCn1c(=O)c2[nH]c(-c3ccc(-n4nc(-c5ccccc5)cc4N)nc3)nc2n(CCC)c1=O` [Compound 15, 8-(6-(5-Amino-3-phenyl-1H-pyrazol-1-yl)pyridin-3-yl)-1,3-dipropyl-1H-purine-2,6(3H, 7H)-dione], the Ki is reported as less than 100 nM.
`CCCn1c(=O)c2[nH]c(-c3ccc(-n4nc(C(F)(F)F)cc4-c4ccco4)nc3)nc2n(CCC)c1=O` [Compound 9, 8-(6-(3-(trifluoromethyl)-5-(furan-2-yl)-1H-pyrazol-1-yl)pyridin-3-yl)-1,3-Dipropyl-1H-purine-2,6(3H, 7H)-dione] was tested, and the Ki was less than 100 nM.
`CCCn1c(=O)c2[nH]c(-c3ccc(-n4nc(C)cc4-c4ccccc4)nc3)nc2n(CCC)c1=O` [Compound 5, 8-(6-(3-methyl-5-phenyl-1H-pyrazol-1-yl)pyridin-3-yl)-1,3-Dipropyl-1H-purine-2,6(3H,7H)-dione] gave a Ki of 100 to 500 nM.
With `CCn1c(=O)c2[nH]c(-c3ccc(-n4nc(C)cc4-c4ccccc4)nc3)nc2n(CC)c1=O` [Compound 2, 1,3-diethyl-8-(6-(3-methyl-5-phenyl-1H-pyrazol-1-yl)pyridin-3-yl)-1H-purine-2,6(3H,7H)-dione] the Ki was 500 to 5000 nM.
`CCCn1c(=O)c2[nH]c(-c3ccc(-n4nc(C(=O)OCC)cc4C)nc3)nc2n(CCC)c1=O` [Compound 13] was tested, and the Ki was 100 to 500 nM.
Molecule `CCCn1c(=O)c2[nH]c(-c3ccc(-n4nc(C(F)(F)F)cc4-c4cccs4)nc3)nc2n(CCC)c1=O` [Compound 8, 8-(6-(3-(trifluoromethyl)-5-(thiophen-2-yl)-1H-pyrazol-1-yl)pyridin-3-yl)-1,3-Dipropyl-1H-purine-2,6(3H, 7H)-dione] has a Ki of 100 to 500 nM.
`CCCn1c(=O)c2[nH]c(-c3ccc(NN)nc3)nc2n(CCC)c1=O` [Compound 1, 1,3-Dipropyl-8-[6-hydrazino-3-pyridyl]xanthine] was tested, and the Ki was 100 to 500 nM.
